Experimental data published in patent US20260042764A1, “COMPOSITIONS AND METHODS FOR INHIBITION OF KRAS” (TheRas, Inc., priority 2022, published 2026).

Legend:
[1] = molecular target: T1, Avi-KRAS G12D (1-169) GppNHp/RAF1 RBD-3xFLAG (52-151) (Homo sapiens, UniProt P01116, G12D); experiment: Raf1-KRAS G12D-GppNHP disruption HTRF assay (Biological Example 1); format: binding
T1 construct: Avi-KRAS G12D (1-169)
Procedure, shortened: (§1)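 Protein mix, 1 h RT, 700 rpm; reagent mix, 1 h RT, 700 rpm; HTRF read. Buffer Tris pH 7.5/NaCl/MgCl2/BSA/Tween, 10% DMSO. Output % activity, DMSO = 100%.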

[2] = tested on: SW620 cells (KRAS G12V); experiment: Cell-based pERK HTRF assay in SW620 cell (Biological Example 4); settings: Homo sapiens, SW-620, SW620 (KRAS G12V) cells, pERK HTRF
Procedure, shortened: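 SW620 (KRAS G12V) cells seeded at 3×10^4/well in RPMI, 10% FBS, then treated next day for 4 h with a 9-point half-log series from 1 μM top (0.25% DMSO). Lysates analyzed for pERK by HTRF (Eu cryptate/d2 antibodies, 4–24 h at room temperature), excitation 320 nm, emission 615 nm.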

[3] = molecular target: T2, Avi-KRAS G12V (1-169) GppNHp/RAF1 RBD-3xFLAG (52-151) (Homo sapiens, UniProt P01116, G12V); experiment: Raf1-KRAS G12V-GppNHP disruption HTRF assay (Biological Example 1); format: binding
T2 construct: Avi-KRAS G12V (1-169)
T2 sequence (P01116 1-169 isoform P01116-2 G12V): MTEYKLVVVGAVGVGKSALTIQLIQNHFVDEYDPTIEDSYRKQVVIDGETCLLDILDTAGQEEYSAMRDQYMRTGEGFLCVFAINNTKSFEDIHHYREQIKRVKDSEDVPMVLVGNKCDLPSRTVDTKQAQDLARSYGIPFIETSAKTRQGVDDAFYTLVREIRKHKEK
Procedure, shortened: as §1

[4] = tested on: GP2d cells (KRAS G12D); experiment: Cell-based pERK HTRF assay in GP2d cell (Biological Example 2); settings: GP2d (KRAS G12D) cells, pERK HTRF
Procedure, shortened: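 Treatment with test compounds lasted one hour in DMEM containing 10% FBS, with DMSO held at 0.25%. Dilution series: 9 points, half-log spacing, highest 1 μM or 100 nM. Lysates were incubated 4–24 h at room temperature with antibody mix, then HTRF was read at 320 nm excitation.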

[5] = molecular target: T3, Avi-KRAS G12R (1-169) GppNHp/RAF1 RBD-3xFLAG (52-151) (Homo sapiens, UniProt P01116, G12R); experiment: Raf1-KRAS G12R-GppNHP disruption HTRF assay (Biological Example 1); format: binding
T3 construct: Avi-KRAS G12R (1-169)
T3 sequence (P01116 1-169 isoform P01116-2 G12R): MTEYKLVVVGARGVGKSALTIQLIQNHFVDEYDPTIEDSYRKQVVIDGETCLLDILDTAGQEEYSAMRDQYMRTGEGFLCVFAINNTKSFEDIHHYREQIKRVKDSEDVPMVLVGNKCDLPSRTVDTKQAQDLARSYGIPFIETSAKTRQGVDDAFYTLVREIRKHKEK
Procedure, shortened: as §1

[6] = molecular target: T4, Avi-KRAS WT (1-169) GppNHp/RAF1 RBD-3xFLAG (52-151) (Homo sapiens, UniProt P01116); experiment: Raf1-KRAS WT-GppNHP disruption HTRF assay (Biological Example 1); format: binding
T4 construct: Avi-KRAS WT (1-169)
T4 sequence (P01116 1-169 isoform P01116-2): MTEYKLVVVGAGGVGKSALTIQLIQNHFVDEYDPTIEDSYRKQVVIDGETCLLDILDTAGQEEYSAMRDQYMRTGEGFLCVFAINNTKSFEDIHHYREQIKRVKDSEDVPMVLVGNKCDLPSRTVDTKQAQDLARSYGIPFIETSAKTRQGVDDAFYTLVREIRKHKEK
Procedure, shortened: as §1

[7] = KRAS G12D, GppNHp-loaded, class symbols
[8] = KRAS G12V, GppNHp-loaded, class symbols
[9] = KRAS G12R, GppNHp-loaded, class symbols
[10] = KRAS WT, GppNHp-loaded, class symbols
[11] = KRAS G12D, GppNHp-loaded, Table 11
[12] = KRAS G12V, GppNHp-loaded, Table 11
[13] = KRAS G12R, GppNHp-loaded, Table 11
[14] = KRAS WT, GppNHp-loaded, Table 11

T1 sequence (P01116 1-169 isoform P01116-2 G12D): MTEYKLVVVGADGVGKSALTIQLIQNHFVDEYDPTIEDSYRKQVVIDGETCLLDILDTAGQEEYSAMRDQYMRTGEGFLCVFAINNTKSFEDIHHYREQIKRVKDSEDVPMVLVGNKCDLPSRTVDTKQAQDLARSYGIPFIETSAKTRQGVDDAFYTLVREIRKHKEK

Compound	IC50 [1, 7]	IC50 ([2]; class symbols)	IC50 [3, 8]	IC50 ([4]; GP2d, class symbols)	IC50 [5, 9]	IC50 [6, 10]	IC50 [1, 11]	IC50 [2]	IC50 [3, 12]	IC50 [4]	IC50 [5, 13]	IC50 [6, 14]	IC50 ([4]; GP2d)	IC50 ([1]; KRAS G12D-GppNHp/RAF1 RBD HTRF)	IC50 ([3]; KRAS G12V-GppNHp/RAF1 RBD HTRF)	IC50 ([5]; KRAS G12R-GppNHp/RAF1 RBD HTRF)	IC50 ([6]; KRAS WT-GppNHp/RAF1 RBD HTRF)
CCN(c1nc(OC[C@@]23CCCN2C[C@H](F)C3)nc2c(F)c(-c3ccc(F)c4sc(N)c(C#N)c34)c(C(F)(F)F)cc12)[C@H]1CCN(C(=O)C2C[C@@H]2C)C1 (stereo partly drawn) [Compound 604]	< 100 nM	< 100 nM	< 100 nM	< 100 nM	< 100 nM	< 100 nM	–	–	–	–	–	–	–	–	–	–	–
CCN(C)c1nc(OC[C@@]23CCCN2C[C@H](F)C3)nc2c(F)c(-c3ccc(F)c4sc(N)c(C#N)c34)c(C(F)(F)F)cc12 (single isomer, unassigned) [Compound 196]	–	–	–	–	–	–	< 100 nM	< 100 nM	100 to 1000 nM	< 100 nM	< 100 nM	< 100 nM	–	–	–	–	–
CCN(c1nc(OC[C@@]23CCCN2C[C@H](F)C3)nc2c(F)c(-c3ccc(F)c4sc(N)c(C#N)c34)c(C(F)(F)F)cc12)[C@H]1CCN(C(=O)OCC2CN(C(C)=O)C2)C1 (atropisomer, axis not shown) [Compound 640]	< 100 nM	< 100 nM	< 100 nM	< 100 nM	< 100 nM	< 100 nM	–	–	–	–	–	–	–	–	–	–	–
CCN(c1nc(OC[C@@]23CCCN2C[C@H](F)C3)nc2c(F)c(-c3ccc(F)c4sc(N)c(C#N)c34)c(C(F)(F)F)cc12)[C@H]1CCN(C(=O)N2CCC2)C1 (atropisomer, axis not shown) [Compound 574]	< 100 nM	< 100 nM	< 100 nM	< 100 nM	< 100 nM	< 100 nM	–	–	–	–	–	–	–	–	–	–	–
N#Cc1c(N)sc2c(F)ccc(-c3c(C(F)(F)F)cc4c(N5CCC[C@H](O)C5)nc(OC[C@@]56CCCN5C[C@H](F)C6)nc4c3F)c12 [Compound 236]	–	–	–	–	–	–	100 to 1000 nM	< 100 nM	100 to 1000 nM	–	100 to 1000 nM	100 to 1000 nM	< 100 nM	–	–	–	–
CCN(c1nc(OC[C@@]23CCCN2C[C@H](F)C3)nc2c(F)c(-c3ccc(F)c4sc(N)c(C#N)c34)c(C(F)(F)F)cc12)[C@H]1CCN(C(=O)OC2CCC2)C1 (atropisomer, axis not shown) [Compound 802]	< 100 nM	< 100 nM	< 100 nM	< 100 nM	< 100 nM	100 to 1000 nM	–	–	–	–	–	–	–	–	–	–	–
N#Cc1c(N)sc2c(F)ccc(-c3c(C(F)(F)F)cc4cnc(OC[C@@]56CCCN5C[C@H](F)C6)nc4c3F)c12 [Compound 213, 2-amino-7-fluoro-4-[8-fluoro-2-[[(2R,8S)-2-fluoro-1,2,3,5,6,7-hexahydropyrrolizin-8-yl]methoxy]-6-(trifluoromethyl)quinazolin-7-yl]benzothiophene-3-carbonitrile]	–	–	–	–	–	–	100 to 1000 nM	< 100 nM	100 to 1000 nM	–	100 to 1000 nM	100 to 1000 nM	< 100 nM	–	–	–	–
CCN(c1nc(OC[C@@]23CCCN2C[C@H](F)C3)nc2c(F)c(-c3ccc(F)c4sc(N)c(C#N)c34)c(C(F)(F)F)cc12)[C@H]1C[C@H](C)N(C(=O)N(C)C)C1 (atropisomer, axis not shown) [Compound 521]	–	–	–	–	–	–	–	< 100 nM	–	–	–	–	< 100 nM	< 100 nM	< 100 nM	< 100 nM	100 to 1000 nM
CC(C)C(=O)N1CC[C@@](C)(N(C)c2nc(OC[C@@]34CCCN3C[C@H](F)C4)nc3c(F)c(-c4ccc(F)c5sc(N)c(C#N)c45)c(C(F)(F)F)cc23)[C@H]1C [Compound 345]	–	–	–	–	–	–	–	100 to 1000 nM	–	–	–	–	100 to 1000 nM	1000 to 10000 nM	> 10000 nM	> 10000 nM	1000 to 10000 nM
CN(C)C(=O)c1nn2c(c1C(F)(F)F)CN(c1nc(OC[C@@]34CCCN3C[C@H](F)C4)nc3c(F)c(-c4ccc(F)c5sc(N)c(C#N)c45)c(C(F)(F)F)cc13)CC2 (atropisomer, axis not shown) [Compound 596]	< 100 nM	< 100 nM	100 to 1000 nM	< 100 nM	100 to 1000 nM	100 to 1000 nM	–	–	–	–	–	–	–	–	–	–	–
